# From patent US6737383B1, “Herbicidal oxadiazolidines” (priority 1999, dated 2004)
# How the values were obtained:
# crabgrass = assay: Test B pre/postemergence crabgrass; type: in vivo, Digitaria sanguinalis
# Summary of the method: (§1)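 Herbicidal effect was estimated by eye on a ten-point control scale after plants spent twelve to sixteen days in a greenhouse following soil or foliar treatment. Foliar sprays targeted plants at one to four leaves; all doses were formulated in a non-phytotoxic solvent with surfactant.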
# wheat = assay: Test B pre/postemergence wheat; type: in vivo, Triticum aestivum
# Summary of the method: as §1
# wild oat = assay: Test B pre/postemergence wild oat; type: in vivo, Avena fatua
# Summary of the method: as §1
# rice = assay: Test B flood test rice; type: in vivo, Oryza sativa; conditions: for Plant response rating, Rice (0 to 10 scale, 0 is no effect, 10 is complete control) / Rice plant response rating (0 to 10 scale, 0 is no effect, 10 is complete control): visual evaluation after twelve to sixteen days; for Rice plant response rating (0 to 10 scale, 0 is no effect, 10 is complete control): under heading Pre-emergence
# Summary of the method: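 Plants were grown to the 2-leaf stage before treatment with test chemical, then held in a greenhouse for twelve to sixteen days. Injury was visually rated against untreated controls on a 0–10 scale, where 0 is no effect and 10 is complete control.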
# [1] = Postemergence, Rate 125 g/ha, scale of 0 to 10 where 0 is no effect and 10 is complete control
# [2] = Preemergence, Rate 62 g/ha, scale 0 to 10 (0 no effect, 10 complete control)
# [3] = Preemergence, Rate 125 g/ha, 0 is no effect, 10 is complete control
# [4] = Preemergence, Rate 250 g/ha, scale 0 to 10, 0 is no effect, 10 is complete control
# [5] = Preemergence, Rate 500 g/ha, scale 0 to 10 (0 no effect, 10 complete control)
# [6] = Rate 62 g/ha, Postemergence, scale of 0 to 10 where 0 is no effect and 10 is complete control
# [7] = Rate 250 g/ha, Postemergence, scale 0 to 10, 0 is no effect, 10 is complete control
# [8] = Rate 500 g/ha, Postemergence, scale 0 to 10, 0 no effect, 10 complete control
# [9] = Rate 500 g/ha, headed Pre-emergence (flood test species), scale 0 to 10 (0 no effect, 10 complete control)
# [10] = Postemergence, Rate 62 g/ha, scale of 0 to 10, 0 is no effect, 10 is complete control
# [11] = Postemergence, Rate 125 g/ha, scale 0 to 10, 0 is no effect, 10 is complete control
# [12] = Postemergence, Rate 500 g/ha, scale of 0 to 10 where 0 is no effect and 10 is complete control
# [13] = Preemergence, Rate 125 g/ha, scale 0 to 10, 0 is no effect, 10 is complete control
# [14] = Preemergence, Rate 500 g/ha, scale of 0 to 10 where 0 is no effect and 10 is complete control
# [15] = Rate 250 g/ha, Postemergence, scale of 0 to 10 where 0 is no effect and 10 is complete control
# [16] = Rate 62 g/ha, flood test species, Pre-emergence
# [17] = Rate 125 g/ha, flood test species
# [18] = Preemergence, Rate 62 g/ha, scale of 0 to 10 where 0 is no effect and 10 is complete control
# [19] = Rate 125 g/ha, Postemergence, scale 0 to 10
# [20] = Rate 500 g/ha, Postemergence, scale 0 to 10
# [21] = Rate 250 g/ha, Pre-emergence, flood-test species, scale 0 to 10, 0 is no effect, 10 is complete control
# [22] = Postemergence, Rate 250 g/ha, scale 0 to 10, 0 is no effect, 10 is complete control
# [23] = Preemergence, Rate 250 g/ha, scale of 0 to 10 where 0 is no effect and 10 is complete control
smiles,measurement,setting,value
CC(C)N(C(=O)n1oc(=O)n(-c2ccnn2C)c1=O)c1ccc(F)cc1 [Compound 124],Crabgrass plant response rating,crabgrass; [1],0
same,Crabgrass plant response rating,crabgrass; [2],0
same,Crabgrass plant response rating (0 to 10 scale),crabgrass; [3],0
same,Crabgrass plant response rating,crabgrass; [4],0
same,Crabgrass plant response rating,crabgrass; [5],0
same,Crabgrass plant response rating,crabgrass; [6],0
same,"Plant response rating, Crabgrass",crabgrass; [7],0
same,Crabgrass plant response rating,crabgrass; [8],0
same,Wheat plant response rating,wheat; [1],0
same,Wheat plant response rating,wheat; [2],0
same,Wheat plant response rating (0 to 10 scale),wheat; [3],0
same,Wheat plant response rating,wheat; [4],0
same,Wheat plant response rating,wheat; [5],0
same,Wheat plant response rating,wheat; [6],0
same,"Plant response rating, Wheat",wheat; [7],0
same,Wheat plant response rating,wheat; [8],0
same,Wild oats plant response rating,wild oat; [1],0
same,Wild oats plant response rating,wild oat; [2],0
same,Wild oats plant response rating (0 to 10 scale),wild oat; [3],0
same,Wild oats plant response rating,wild oat; [4],0
same,Wild oats plant response rating,wild oat; [5],0
same,Wild oats plant response rating,wild oat; [6],0
same,"Plant response rating, Wild oats",wild oat; [7],0
same,Wild oats plant response rating,wild oat; [8],0
same,Rice plant response rating,"rice; Postemergence (flood test species), Rate 125 g/ha, scale of 0 to 10 where 0 is no effect and 10 is complete control",0
same,Rice plant response rating,"rice; Rate 62 g/ha, Postemergence section, flood test species, scale of 0 to 10 where 0 is no effect and 10 is complete control",0
same,"Plant response rating, Rice","rice; Rate 250 g/ha, Postemergence (flood test), scale 0 to 10, 0 is no effect, 10 is complete control",0
same,Rice plant response rating,"rice; Rate 250 g/ha, headed Pre-emergence (flood test species), scale 0 to 10 (0 no effect, 10 complete control)",0
same,"Plant response rating, Rice",rice; [9],0
same,Rice plant response rating,"rice; Rate 500 g/ha, listed under Postemergence (flood test species), scale 0 to 10, 0 no effect, 10 complete control",0
same,Rice plant response rating,"rice; Rate 1000 g/ha, Pre-emergence (as headed), scale 0 to 10",0
same,Rice plant response rating,"rice; Rate 2000 g/ha, Pre-emergence (as headed), scale 0 to 10",0
CC(C)N(C(=O)n1oc(=O)n(CCC2OCCCO2)c1=O)c1ccccc1 [Compound 561],Crabgrass plant response rating,crabgrass; [10],2
same,Crabgrass plant response rating,crabgrass; [11],3
same,"Plant response rating, Crabgrass",crabgrass; [12],9
same,Crabgrass plant response rating,crabgrass; [2],9
same,Crabgrass plant response rating,crabgrass; [13],9
same,Crabgrass plant response rating (0 to 10 scale),"crabgrass; Preemergence, Rate 250 g/ha",9
same,Crabgrass plant response rating,crabgrass; [14],9
same,"Plant response rating, Crabgrass",crabgrass; [15],4
same,Wheat plant response rating,wheat; [10],0
same,"Plant response rating, Wheat",wheat; [12],7
same,Wheat plant response rating,wheat; [2],0
same,Wheat plant response rating,wheat; [13],4
same,Wheat plant response rating (0 to 10 scale),"wheat; Preemergence, Rate 250 g/ha",6
same,Wheat plant response rating,wheat; [14],9
same,"Plant response rating, Wheat",wheat; [15],3
same,Wild oats plant response rating,wild oat; [10],0
same,"Plant response rating, Wild oats",wild oat; [12],2
same,Wild oats plant response rating,wild oat; [2],0
same,Wild oats plant response rating,wild oat; [13],2
same,Wild oats plant response rating (0 to 10 scale),"wild oat; Preemergence, Rate 250 g/ha",5
same,Wild oats plant response rating,wild oat; [14],9
same,"Plant response rating, Wild oats",wild oat; [15],2
same,"Plant response rating, Rice (0 to 10 scale, 0 is no effect, 10 is complete control)",rice; [16],0
same,"Rice plant response rating (0 to 10 scale, 0 is no effect, 10 is complete control)",rice; [17],0
same,Rice plant response rating,"rice; Rate 250 g/ha, Pre-emergence (flood test species), scale 0 to 10, 0 is no effect, 10 is complete control",0
same,Rice plant response rating,"rice; Rate 500 g/ha, Pre-emergence section of Table B, 0 to 10 scale (0 no effect, 10 complete control)",0
COc1nc(OC)nc(N(C(=O)n2oc(=O)n(-c3ccccc3C)c2=O)C(C)C)n1 [Compound 181],Crabgrass plant response rating,crabgrass; [18],0
same,Crabgrass plant response rating (0 to 10 scale),crabgrass; [3],0
same,Crabgrass plant response rating,crabgrass; [4],0
same,Crabgrass plant response rating,crabgrass; [5],0
same,Crabgrass plant response rating,crabgrass; [6],0
same,Crabgrass plant response rating,crabgrass; [19],0
same,"Plant response rating (0 to 10; 0 is no effect, 10 is complete control), Crabgrass","crabgrass; Rate 250 g/ha, Postemergence",0
same,Crabgrass plant response rating,crabgrass; [20],0
same,Wheat plant response rating,wheat; [18],0
same,Wheat plant response rating,wheat; [4],0
same,Wheat plant response rating,wheat; [5],0
same,Wheat plant response rating,wheat; [19],0
same,"Plant response rating (0 to 10; 0 is no effect, 10 is complete control), Wheat","wheat; Rate 250 g/ha, Postemergence",0
same,Wheat plant response rating,wheat; [20],0
same,Wild oats plant response rating,wild oat; [18],0
same,Wild oats plant response rating,wild oat; [4],0
same,Wild oats plant response rating,wild oat; [5],0
same,Wild oats plant response rating,wild oat; [19],0
same,"Plant response rating (0 to 10; 0 is no effect, 10 is complete control), Wild oats","wild oat; Rate 250 g/ha, Postemergence",0
same,Wild oats plant response rating,wild oat; [20],0
same,Rice plant response rating,"rice; Rate 62 g/ha, headed Pre-emergence (flood test species), scale 0 to 10 (0 no effect, 10 complete control)",0
same,Rice plant response rating,"rice; Rate 125 g/ha, Pre-emergence, flood test species, scale 0 to 10 where 0 is no effect and 10 is complete control",0
same,Rice plant response rating,rice; [21],0
same,"Plant response rating, Rice",rice; [9],0
Cc1nnsc1Cn1c(=O)on(C(=O)N(c2ccccc2)C(C)C)c1=O [Compound 378],"Plant response rating, Crabgrass",crabgrass; [11],0
same,"Plant response rating, Crabgrass",crabgrass; [22],0
same,"Plant response rating, Crabgrass",crabgrass; [2],0
same,Crabgrass plant response rating (0 to 10 scale),"crabgrass; Preemergence, Rate 125 g/ha",3
same,Crabgrass plant response rating,crabgrass; [23],9
same,Crabgrass plant response rating,crabgrass; [14],10
same,Crabgrass plant response rating,crabgrass; [6],0
same,"Plant response rating, Crabgrass",crabgrass; [8],2
same,"Plant response rating, Wheat",wheat; [11],0
same,"Plant response rating, Wheat",wheat; [22],0
same,"Plant response rating, Wheat",wheat; [2],0
same,Wheat plant response rating (0 to 10 scale),"wheat; Preemergence, Rate 125 g/ha",0
same,Wheat plant response rating,wheat; [23],0
same,Wheat plant response rating,wheat; [14],0
same,Wheat plant response rating,wheat; [6],0
same,"Plant response rating, Wheat",wheat; [8],0
same,"Plant response rating, Wild oats",wild oat; [11],0
same,"Plant response rating, Wild oats",wild oat; [22],0
same,"Plant response rating, Wild oats",wild oat; [2],0
same,Wild oats plant response rating (0 to 10 scale),"wild oat; Preemergence, Rate 125 g/ha",0
same,Wild oats plant response rating,wild oat; [23],0
same,Wild oats plant response rating,wild oat; [14],0
same,Wild oats plant response rating,wild oat; [6],0
same,"Plant response rating, Wild oats",wild oat; [8],0
same,"Plant response rating, Rice (0 to 10 scale, 0 is no effect, 10 is complete control)",rice; [16],0
same,"Rice plant response rating (0 to 10 scale, 0 is no effect, 10 is complete control)",rice; [17],0
same,Rice plant response rating,rice; [21],0
same,Rice plant response rating,"rice; Rate 500 g/ha, Pre-emergence, flood test species, scale 0 to 10 (0 no effect, 10 complete control)",0
